The target of test [1] is T1, SUMO-activating enzyme subunit 1 (Homo sapiens, UniProt Q9UBE0).
T1 sequence (Q9UBE0 whole entry): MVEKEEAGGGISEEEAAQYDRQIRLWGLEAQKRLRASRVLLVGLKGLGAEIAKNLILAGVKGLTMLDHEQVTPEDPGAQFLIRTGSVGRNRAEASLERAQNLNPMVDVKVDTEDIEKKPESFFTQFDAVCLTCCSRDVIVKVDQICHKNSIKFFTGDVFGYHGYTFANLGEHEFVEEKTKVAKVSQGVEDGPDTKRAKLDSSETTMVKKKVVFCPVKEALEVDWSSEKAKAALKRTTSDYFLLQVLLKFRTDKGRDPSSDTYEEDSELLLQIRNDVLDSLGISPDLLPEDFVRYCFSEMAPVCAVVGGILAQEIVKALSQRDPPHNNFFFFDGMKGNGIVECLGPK
Description: (§1) Inhibition of recombinant GST-fused SUMO E1 (unknown origin) using RanGAP1 as substrate after 2 hrs by immunoblot analysis.

Test [2] has as its target T2, SUMO-activating enzyme subunit 1 (Homo sapiens) (UniProt Q9UBE0).
T2 sequence (whole entry): T1 sequence (Q9UBE0 whole entry)
Kind of test: Inhibition of recombinant GST-fused SUMO E1 (unknown origin) using RanGAP1 as substrate at 100 uM after 2 hrs by immunoblot analysis. Particulars: values are per cent of control.

Test [3] addresses T2, SUMO-activating enzyme subunit 1 (Homo sapiens). Kind of test: Inhibition of recombinant GST-fused SUMO E1 (unknown origin) using RanGAP1 as substrate at 20 uM after 2 hrs by immunoblot analysis. Particulars: values are per cent of control.
The target is the same in test [4]. Described as §1.

pIC50: −log10 of the molar value.

Take `CCc1cc(=O)[nH]c(-n2nc(-c3ccccc3)cc2NC(=O)Nc2ccc3c(c2)OCO3)n1`: the pIC50 in test [1] was under 4.00. For the same molecule, the residual activity in test [2] was found to be 5.69%; in test [3], 36.7%.
Regarding `COc1ccc(NC(=O)Nc2ccc(Oc3ncnc4cc(Cl)ccc34)nc2)cc1OC1CCCC1`, the pIC50 in test [1] was 4.87.
Take `CCOC(=O)c1sc(NC(=O)Nc2ccc(Cl)c(Cl)c2)nc1C`: the residual activity in test [2] came out at 0.7%; in test [3], 53.8%.
Turning to `Cc1ccc(S(=O)(=O)NC(=O)Nc2nc(-c3ccc(C)c(Cl)c3)c(C)s2)cc1`, the residual activity in test [2] was 0.68%; in test [3], 79.3%.
As for `COc1cc(NC(=O)Nc2nc3cc(C)c(C)cc3s2)cc(OC)c1OC`, the values for the residual activity in test [2] and in test [3] were 96% and 94.8%, respectively.
Regarding `COc1ccc(NC(=O)Nc2nc(-c3ccc(C)c(Cl)c3)c(C)s2)cc1OC1CCCC1`, the inhibition entry in test [4] is “Dose-dependent effect”. Further, the pIC50 in test [1] is 4.03. Moreover, the residual activity in test [2] was 13%; in test [3] it was 39.8%.
On to `COc1cc(NC(=O)Nc2nc(-c3ccc(Cl)s3)cs2)cc(OC)c1OC`, for which the residual activity worked out at 0.01% in test [2] and 60.8% in test [3].
On to `COc1cccc(NC(=O)Nc2cc(C)nn2-c2ccc(F)cc2)c1`, for which the residual activity in test [2] worked out at 96.4%; in test [3], 96%.
Consider `CCc1cc(=O)[nH]c(-n2nc(-c3ccccc3)cc2NC(=O)Nc2ccc(C(C)(C)C)cc2)n1`, for which the pIC50 in test [1] was 4.86. Moreover, the residual activity came out at 1.88% in test [2] and 55.2% in test [3].
For `COc1ccc(NC(=O)Nc2nc(C)c(C(C)=O)s2)cc1`, the residual activity came out at 93.3% in test [2] and 105% in test [3].
The like results for `COc1cc(NC(=O)Nc2nc(-c3cc4ccccc4o3)cs2)cc(OC)c1OC` were, in that order, 45.3% and 76.8%.
On to `COc1cc(C)ccc1NC(=O)Nc1cn(-c2ccccc2)nc1-c1ccc(OC)c(OC)c1`, for which the residual activity turned out to be 57.5% in test [2] and 88.9% in test [3].
For `O=C(Nc1cccc(Cl)c1)Nc1nc2c(ccc3ccccc32)s1` the same measures were 0.02% and 69.3%.
Regarding `COc1ccccc1NC(=O)Nc1cc(C(C)(C)C)nn1C`, the residual activity is 95.2% in test [2] and 102% in test [3].
For `Cc1ccc(-c2nc(NC(=O)Nc3cccc(Cl)c3)sc2C)cc1` the same measures were 45.6% and 88.5%.
As to `COc1cc(NC(=O)Nc2nc(-c3nc4ccccc4s3)cs2)cc(OC)c1OC`, the inhibition entry in test [4] is “Dose-dependent effect”. Moreover, the pIC50 in test [1] was 4.48. Besides, the figures for the residual activity in test [2] and in test [3] were 3.96% and 37.6%, respectively.
As to `COc1cc(NC(=O)Nc2nc3c(OC)ccc(C)c3s2)cc(OC)c1OC`, the residual activity in test [2] is 83.5%; in test [3], 99.3%.
For `Cc1sc(NC(=O)Nc2ccc(Cl)cc2)nc1-c1ccccc1` the same measures were 95.8% and 91.5%.
For `COc1ccc(NC(=O)Nc2nc(-c3ccccc3)c(C(C)=O)s2)cc1OC` the same measures were 13.7% and 86%.
Take `COc1ccc(NC(=O)Nc2cc(C)nn2C2CCCC2)cc1`: the residual activity in test [2] amounted to 103%; in test [3], 93.7%.
For `Cn1nc(-c2ccc(Cl)cc2)cc1NC(=O)Nc1ccc(OCc2ccccc2)cc1` the same measures were 1.99% and 73.4%.
For `Cc1ccc(-c2nc(NC(=O)Nc3ccc(F)cc3)sc2C)cc1Cl`, the residual activity in test [2] amounted to 94.8%; in test [3], 93.9%.
As to `COc1ccccc1NC(=O)Nc1nc(-c2ccc(OC)c(OC)c2)cs1`, the residual activity stood at 80% in test [2] and 88.1% in test [3].
As for `Cc1cc(=O)[nH]c(-n2nc(-c3ccccc3)cc2NC(=O)Nc2ccc3c(c2)OCO3)n1`, the pIC50 in test [1] was 4.52. The residual activity in test [2] is 3.99%; in test [3] it was 57.7%.
As for `COc1ccc(NC(=O)Nc2cc(C)nn2-c2ccc(F)cc2)cc1`, the residual activity in test [2] came out at 95.4%; in test [3], 97.7%.
For `CCc1cc(=O)[nH]c(-n2nc(-c3ccccc3)cc2NC(=O)Nc2cc(OC)cc(OC)c2)n1` the same measures were 26.8% and 82.3%.
On to `Cn1nc(-c2ccccc2)cc1NC(=O)Nc1ccc(OCc2ccccc2)cc1`, for which the residual activity in test [2] stood at 3%; in test [3], 72%.
Consider `COc1cc(NC(=O)Nc2cc(-c3ccccc3)nn2-c2nc(C)cc(=O)[nH]2)cc(OC)c1`, for which the pIC50 in test [1] is 4.14. In addition, the residual activity in test [2] worked out at 16%; in test [3], 57.5%.
Turning to `O=C(Nc1ccc(OCc2ccccc2)cc1)Nc1cc(-c2ccccc2)nn1-c1ccccc1`, the residual activity in test [2] came out at 13.3%; in test [3] it was 86.3%.
The like results for `Cn1nc(C(C)(C)C)cc1NC(=O)Nc1ccc(OCc2ccccc2)cc1` were, in that order, 97.3% and 92.9%.
As to `CCOc1ccc(NC(=O)Nc2nc(-c3ccccc3)c(C)s2)cc1`, the residual activity in test [2] was 43.9%; in test [3], 76.7%.
The like results for `Cc1ccc(-c2nc(NC(=O)Nc3ccccc3)sc2C)cc1Cl` were, in that order, 41.4% and 65.6%.
Consider `COc1ccccc1NC(=O)Nc1cc(C(C)(C)C)nn1-c1ccccc1`, for which the residual activity in test [2] was determined as 53.2%; in test [3], 99.6%.
The like results for `COc1ccc(NC(=O)Nc2nc3c(ccc4ccccc43)s2)cc1` were, in that order, 10.3% and 84.7%.
Regarding `COc1ccc(NC(=O)Nc2nc(-c3ccc(OC)c(OC)c3)cs2)cc1`, the residual activity in test [2] was determined as 68.7%; in test [3], 92%.
For `COc1cccc(NC(=O)Nc2cc(C)nn2C2CCCC2)c1`, the residual activity worked out at 101% in test [2] and 100% in test [3].
As for `Cc1ccc(-c2nc(NC(=O)Nc3ccc(OCc4ccccc4)cc3)sc2C)cc1Cl`, the residual activity in test [2] is 31.6%; in test [3], 64.8%.
The like results for `CCc1c(C)nc(-n2nc(C)cc2NC(=O)Nc2cccc(OC)c2)[nH]c1=O` were, in that order, 103% and 98.1%.
The like results for `COc1ccc(NC(=O)Nc2nc3cc(C)c(C)cc3s2)cc1OC` were, in that order, 76.6% and 94.6%.
On to `CCc1cc(=O)[nH]c(-n2nc(-c3ccccc3)cc2NC(=O)Nc2ccc(OC)cc2)n1`, for which the values for the residual activity in test [2] and in test [3] were 11.8% and 65.6%, respectively.
For `COc1cccc(NC(=O)Nc2nc(C)c(C(C)=O)s2)c1` the same measures were 91.9% and 96.6%.
As for `Cc1ccc(-c2nc(NC(=O)Nc3ccc(Cl)cc3)sc2C)cc1`, the residual activity in test [2] was determined as 20.6%; in test [3], 91.8%.

The values above are taken from ChEMBL document CHEMBL3758164, “Identification of new SUMO activating enzyme 1 inhibitors using virtual screening and scaffold hopping” (Bioorg Med Chem Lett, 2016).
